Columns and labels:
Type in all cases: physicochemical
[1] = Flowability (bulk/tapped density, compressibility index); details: for Compressibility index: c=(ρf−ρ0)/ρf*100%; for Flowability: class by compressibility index
Experimental: Compressibility, also known as compressibility index is usually used to evaluate the flowability of powder and granular intermediates during the formulation process. A certain amount of powder was added into a measuring cylinder and bulk volume was recorded. Then the measuring cylinder was tapped to make the powder in the tightest state and the tapped volume was recorded. The bulk density (ρ0), tapped density (ρf) were calculated, and compressibility index was calculated according to c=(ρf−ρ0)/ρf. Compressibility index or Carr Index is an important indicator for evaluating the flowability of powder.
Compressibility index test method is as follows: Compressibility index was calculated according to bulk density ρ0 and tapped density ρf of Form CS2 and the amorphous solid of the prior art with c=(ρf−ρ0)/ρf*100%.

[2] = Grinding stability of Form CS2; details: ground manually for 5 minutes in a mortar, XRPD
Experimental: Form CS2 was ground manually for 5 minutes in a mortar. The XRPD pattern of the solids before and after grinding are presented in FIG. 12 (top: XRPD pattern before grinding; bottom: XRPD pattern after grinding). […] Form CS2 has good grinding stability.

[3] = Hygroscopicity by dynamic vapor sorption (DVS)
Experimental: Thermo gravimetric analysis (TGA) data in the present disclosure were acquired by a TA Q500. The parameters of the TGA method of the present disclosure were as follows: • Heating rate: 10° C./min • Purge gas: nitrogen • Dynamic Vapor Sorption (DVS) is measured via a SMS (Surface Measurement Systems Ltd.) intrinsic DVS instrument. Typical Parameters for DVS test are as follows: • Temperature: 25° C. • Gas and flow rate: N2, 200 mL/min • dm/dt: 0.002%/min • RH range: 0% RH to 95% RH
Dynamic vapor sorption (DVS) was applied to measure hygroscopicity of Form CS2 with about 10 mg of samples. The weight gains at each relative humidity were recorded in a cycle of 0-95%-0 RH. The XRPD pattern overlay of Form CS2 before and after DVS test is presented in FIG. 14 (top: XRPD pattern before DVS; bottom: XRPD pattern after DVS). […] The weight gain under 80% RH is 0.21%.

[4] = Adhesiveness (material sticking to the punch); details: 30 mg, φ8 mm round tooling, 10 KN, 30s
Experimental: 30 mg of Form CS2 was weighed and added into the dies of φ8 mm round tooling, tableted at 10 KN and held for 30s. The amount of material sticking to the punch was weighed. The compression was repeated twice and the cumulative amount, maximum amount and average amount of material sticking to the punch during the compression process were recorded.

[5] = Compressibility (tablet hardness, tensile strength)
Experimental: 80 mg of Form CS2 was weighted and added into the dies of φ6 mm round tooling, compressed at 10 KN. The round tablet was stored in a desiccator for 24 hours until complete elastic recovery. Hardness (H) was tested with a tablet hardness tester. Diameter (D) and thickness (L) were tested with caliper. Tensile strength of the powder was calculated with the following formula: T=2H/πDL. Under a certain force, the greater the tensile strength, the better the compressibility.

[6] = 80 mg tablet, φ6 mm, 10 KN, after 24 hours

SMILES	Bulk density (ρ0) [1]	Tapped density (ρf) [1]	Compressibility index [1]	Flowability [1]	Crystalline form after grinding [2]	Weight gain under 80% Relative Humidity ([3]; DVS, 25° C.)	Crystalline form after DVS ([3]; cycle of 0-95%-0 RH, XRPD)	Average amount of material sticking to the punch [4]	Cumulative amount of material sticking to the punch [4]	Maximum amount of material sticking to the punch [4]	Diameter [5, 6]	Hardness [5, 6]	Thickness [5, 6]	Tensile strength ([5]; T=2H/πDL)
Cc1ncc(OC[C@@]2(c3cccc(F)c3)C[C@H]2C(=O)Nc2ccc(F)cn2)c(C)n1 [Amorphous solid, (1R,2S)-2-{[(2,4-dimethylpyrimidin-5-yl)oxy]methyl}-2-(3-fluorophenyl)-N-(5-fluoropyridin-2-yl)cyclopropanecarboxamide, reference compound]	0.196 g/mL	0.274 g/mL	28%	Poor										
Cc1ncc(OC[C@@]2(c3cccc(F)c3)C[C@H]2C(=O)Nc2ccc(F)cn2)c(C)n1 [Form CS2, (1R,2S)-2-{[(2,4-dimethylpyrimidin-5-yl)oxy]methyl}-2-(3-fluorophenyl)-N-(5-fluoropyridin-2-yl)cyclopropanecarboxamide]	0.263 g/mL	0.351 g/mL	25%	Passable (21-25)	does not change after grinding	0.21%	does not change after DVS	0.22 mg	0.44 mg	0.74 mg	6.06 mm	8.4 N	2.40 mm	0.37 MPa
